Test results as given in US20140242609A1, “Diagnosis and treatment of kidney stones, methods and compositions therefor” (Washington University, priority 2013, published 2014).

Experiments:
[1] = 24 hr urinalysis in metabolic cages, plasma and urine electrolytes; type: in vivo, mouse
Method: Age (9-10 weeks old) and sex (male) matched wild-type and CLDN14 KO mice were housed individually in metabolic cages (Harvard Apparatus) with free access to water and food for 24 hr. Urine was collected under mineral oil. The plasma and urine Ca^++ and Mg^2+ levels were determined with atomic flame absorption spectrophotometer (PerkinElmer). The plasma (P) and urine (U) electrolyte levels were determined with the Roche Cobas clinical analyzer (Roche Diagnostics). […] The fractional excretion of electrolytes was calculated using the following equation: FEion=V×Uion/(GFR×Pion), where GFR was calculated according to the clearance rate of creatinine (GFR=V×Ucreatinine/Pcreatinine).
Mice were housed individually in metabolic cages (Harvard Apparatus) with free access to water and food for 24 hr. Urine was collected under mineral oil. The plasma and urine Ca^++ and Mg^++ levels were determined with atomic flame absorption spectrophotometer (PerkinElmer). The creatinine levels were measured with an enzymatic method that was independent of plasma chromogens.

CLDN14 mRNA = CLDN14 mRNA levels in primary cultures / freshly isolated mouse TALH cells (real-time PCR); type: cell-based; conditions: 0.01 μM; versus vehicle
Method: (§1) An immunomagnetic separation method was used to isolate the TAL cells from the mouse kidney (Hou et al., 2009). Antibodies against the TAL cell specific surface antigen, Tamm-Horsfall protein (THP), were coated onto the paramagnetic polystyrene beads (Dynabeads M-280; Dynal), allowing immunoprecipitation of the TAL cells from collagenase digested mouse kidneys. The isolated cells were plated in DMEM medium supplemented with 10% FBS, penicillin/streptomycin, and 1 mM sodium pyruvate for 16 hours, followed by immediate transfection with NFAT or antagomirs.
(§2) Total RNA including microRNA was extracted using Trizol (Invitrogen). Cellular mRNA was reverse transcribed using the Superscript-III kit (Invitrogen), followed by real-time PCR amplification using SYBR Green PCR Master Mix (Bio-Rad) and Eppendorf Realplex2S system. The design of claudin-14 primers was described above. The design of pri-miRNA primers was according to Ma et al., (2010). Results were expressed as 2^−ΔCt values with ΔCT=Ctgene−Ctβ-actin.
as §1, with “TALH” for “TAL”, “kidney. (Gong Y,” for “kidney (Hou”, “al. 2012 and Gong Y, et al. 2013)” for “al., 2009).”, “protein,” for “protein (THP),”, “treatment.” for “transfection with NFAT or antagomirs.”
Total RNA including microRNA was extracted using Trizol (Invitrogen). Cellular mRNA was reverse transcribed using the Superscript-III kit (Invitrogen), followed by real-time PCR amplification using SYBR Green PCR Master Mix (Bio-Rad) and Eppendorf Realplex2S system. […] Results were expressed as 2^−ΔCt values with ΔCT=Ctgene−Ctβ-actin. […]
Total RNA including microRNA was extracted using Trizol (Invitrogen). […] Results were expressed as 2^−ΔCt values with ΔCT=Ctgene−Ctβ-actin. […]

claudin-14 mRNA = claudin-14 mRNA levels in mouse kidney after systemic treatment (real-time PCR); type: in vivo; conditions: 1 mg/kg BW−1; 4 hr
Method: NPS2143 and cinacalcet (Table 1) were dissolved in vehicle—20% (w/v) (2-Hydroxypropyl)-β-cyclodextrin solution and fed to mice with gavage syringe. Cyclosporin-A (Sandimmune; Table 1) was diluted in 0.9% saline and I.P. injected to animals. Control animals received vehicle injection (13% wiv Cremophor EL and 32.9% ethanol). For dietary Ca^2+ manipulation, animals were fed with the following diets for six consecutive days: basal diet: 0.61% Ca^2+ (TestDiet #5755); low Ca^2+ diet: 0 Ca^++ (TestDiet #5855); high Ca^2+ diet: 5% Ca^2+ (TestDiet #5AVB). All animals had free access to water and were housed under a 12 hr light cycle. Blood samples were taken by cardiac puncture rapidly after initiation of terminal anesthesia and centrifuged at 4° C. for 10 min. Kidney were dissected out and immediately frozen at −80° C.
as §2
SAHA and TsA were dissolved in 5% (w/v) ethanol/0.9% saline solution and fed to mice with gavage syringe. Furosemide was dissolved in 50% (w/v) DMSO/0.9% saline solution and I.P. injected to animals. All animals had free access to water and were housed under a 12 hr light cycle. Blood samples were taken by cardiac puncture rapidly after initiation of terminal anesthesia and centrifuged at 4° C. for 10 min. Kidney were dissected out and immediately frozen at −80° C.
Total RNA including microRNA was extracted using Trizol (Invitrogen). Cellular mRNA was reverse transcribed using the Superscript-III kit (Invitrogen), followed by real-time PCR amplification using SYBR Green PCR Master Mix (Bio-Rad) and Eppendorf Realplex2S system. The design of claudin-14 primers was described before by Gong et al., 2012. The design of pri-miRNA primers and ChIP primers was according to Gong et al., 2013. Results were expressed as 2^−ΔCt values with ΔCT=Ctgene−Ctβ-actin. […]
NPS2143 and cinacalcet (Table 9) were dissolved in vehicle −20% (w/v) (2-Hydroxypropyl)-β-cyclodextrin solution and fed to mice with gavage syringe. Cyclosporin-A (Sandimmune; Table 9) was diluted in 0.9% saline and I.P. injected to animals. Control animals received CNI vehicle injection (13% wiv Cremophor EL and 32.9% ethanol). FK506 was dissolved in CNI vehicle, diluted in 0.9% saline and I.P. injected to animals. For dietary Ca^+ manipulation, animals were fed with the following diets for six consecutive days: basal diet: 0.610% Ca^++ (TestDiet #5755); low Ca^++ diet: 0 Ca^++ (TestDiet #5855); high Ca^++ diet: 5% Ca^+ (TestDiet #5AVB). All animals had free access to water and were housed under a 12 hr light cycle. Blood samples were taken by cardiac puncture rapidly after initiation of terminal anesthesia and centrifuged at 4° C. for 10 min. Kidney were dissected out and immediately frozen at −80° C.
Total RNA including microRNA was extracted using Trizol (Invitrogen). Cellular mRNA was reverse transcribed using the Superscript-III kit (Invitrogen), followed by real-time PCR amplification using SYBR Green PCR Master Mix (Bio-Rad) and Eppendorf Realplex2S system. The design of claudin-14 primers was described before by Gong. Y., et al., 2012. The design of pri-miRNA primers was according to Ma. L., et al., 2010. Results were expressed as 2^−ΔCt values with ΔCT=Ctgene−Ctβ-actin.

CLDN14 = CLDN14 expression in cultured MKTAL cells; type: cell-based, mouse; conditions: 1 nM, 10 nM and 100 nM
human CLDN16 (AF152101) = target: T1, human CLDN16 (AF152101) (human, UniProt Q9Y5I7 1-235); test: cell-based or functional assay
T1 sequence (looked up): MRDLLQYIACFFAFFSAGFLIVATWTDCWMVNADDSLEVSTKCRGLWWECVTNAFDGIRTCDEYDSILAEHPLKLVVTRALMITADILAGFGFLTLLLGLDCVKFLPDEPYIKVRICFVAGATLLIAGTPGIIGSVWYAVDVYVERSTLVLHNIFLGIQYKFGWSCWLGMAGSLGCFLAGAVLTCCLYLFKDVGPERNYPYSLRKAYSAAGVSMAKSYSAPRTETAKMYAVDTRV

[2] = WT pre-treated with furosemide 40 mg/kg BW−1 per day, Veh + Furo = furosemide alone

NS(=O)(=O)c1cc(C(=O)O)c(NCc2ccco2)cc1Cl [Furo, Furosemide]
ECa [1, 2]: 2.84 ± 0.78 ug/24 hr · g
EMg [1, 2]: 13.24 ± 3.13 ug/24 hr · g
FECa [1, 2]: 1.89 ± 0.67 %
FEMg [1, 2]: 32.83 ± 1.30 %
PCa [1, 2]: 10.61 ± 0.43 mg/dL
PMg [1, 2]: 2.33 ± 0.11 mg/dL

CC(/C=C/C(=O)NO)=C\[C@@H](C)C(=O)c1ccc(N(C)C)cc1 [TsA, Trichostatin A]
effects on renal Ca++ and Mg++ metabolism (compared with SAHA) ([1]; 1 mg/kg BW−1 per day): exerted similar effects
CLDN14 mRNA levels, reduction (CLDN14 mRNA): 64%
CLDN14 mRNA levels in the kidney, decrease (claudin-14 mRNA): 71%

B1: PTH: human recombinant PTH (1-84; Sigma) (protein, UniProt P01270 32-115, looked up)
Parathyroid hormone: SVSEIQLMHNLGKHLNSMERVEWLRKKLQDVHNFVALGAPLAPRDAGSQRPRKKEDNVLVESHEKSLGEADKADVNVLTKAKSQ
modifications: Parathyroid hormone
CLDN14 gene expression (CLDN14): no significant effect

B2: mouse CLDN14 (AF314089) (other, UniProt Q9Z0S3 1-239, looked up)
chain: MASTAVQLLGFLLSFLGMVGTLITTILPHWRRTAHVGTNILTAVSYLKGLWMECVWHSTGIYQCQIYRSLLALPRDLQAARALMVISCLLSGMACACAVVGMKCTRCAKGTPAKTTFAVLGGALFLLAGLLCMVAVSWTTNDVVQNFYNPLLPSGMKFEIGQALYLGFISSSLSLIGGTLLCLSCQDEAPYRPYPPQSRAGATTTATAPAYRPPAAYKDNRAPSVTSAAHSGYRLNDYV
fold decrease of absolute Na+ permeability, CLDN14+16+19 versus CLDN16+19 (human CLDN16 (AF152101)): 2.43 fold
fold reduction of PNa by CLDN14 in CLDN16 cell background (human CLDN16 (AF152101)): 2.03 fold
